Results reported in the Kinase Knowledgebase extract (Sharma et al. 2016).

Molecular target: PIK3CA (human) (UniProt P42336)
Assay: Enzyme Assay

Sequence of PIK3CA (human) (P42336 whole entry, looked up): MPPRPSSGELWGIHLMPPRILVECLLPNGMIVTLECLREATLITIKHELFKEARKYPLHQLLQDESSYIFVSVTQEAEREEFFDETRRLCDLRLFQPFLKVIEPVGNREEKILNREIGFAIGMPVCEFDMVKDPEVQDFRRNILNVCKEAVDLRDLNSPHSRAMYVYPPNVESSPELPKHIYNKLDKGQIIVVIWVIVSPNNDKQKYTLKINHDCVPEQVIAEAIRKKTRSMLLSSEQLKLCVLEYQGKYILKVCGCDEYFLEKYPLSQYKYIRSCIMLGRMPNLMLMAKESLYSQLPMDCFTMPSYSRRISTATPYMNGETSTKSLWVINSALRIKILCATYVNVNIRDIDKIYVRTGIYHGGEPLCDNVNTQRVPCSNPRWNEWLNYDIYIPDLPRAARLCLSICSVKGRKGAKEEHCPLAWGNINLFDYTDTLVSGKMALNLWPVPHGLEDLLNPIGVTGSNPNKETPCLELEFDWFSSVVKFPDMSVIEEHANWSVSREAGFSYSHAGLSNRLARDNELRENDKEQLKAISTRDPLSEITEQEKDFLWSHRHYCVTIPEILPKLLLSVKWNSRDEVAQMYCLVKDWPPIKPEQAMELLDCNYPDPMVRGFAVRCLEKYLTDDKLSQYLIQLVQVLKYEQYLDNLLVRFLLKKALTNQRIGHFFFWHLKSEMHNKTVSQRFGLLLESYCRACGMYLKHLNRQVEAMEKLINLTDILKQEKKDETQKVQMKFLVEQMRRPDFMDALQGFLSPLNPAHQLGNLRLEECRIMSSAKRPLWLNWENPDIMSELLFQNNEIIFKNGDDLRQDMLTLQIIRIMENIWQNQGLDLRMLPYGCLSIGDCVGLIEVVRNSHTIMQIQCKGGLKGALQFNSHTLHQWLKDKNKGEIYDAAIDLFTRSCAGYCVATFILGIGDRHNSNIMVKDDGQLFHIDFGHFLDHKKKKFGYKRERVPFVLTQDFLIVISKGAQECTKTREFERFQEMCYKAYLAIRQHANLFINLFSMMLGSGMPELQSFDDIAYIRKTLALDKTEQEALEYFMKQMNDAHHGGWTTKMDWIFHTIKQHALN

Structure (SMILES) | IC50
COCCOc1cc(-c2ccc3ncc4c(c3c2)n(-c2ccc(C(C)(C)C#N)cc2)c(=O)n4C)cnc1C | 18 nM
C#Cc1ccc(-c2ccc3ncc4c(c3c2)n(-c2ccc(C(C)(C)C#N)cc2)c(=O)n4C)cn1 | 6 nM
CNC(=O)Nc1ccc(-c2ccc3ncc4c(c3c2)n(-c2ccc(Cl)cc2Cl)c(=O)n4C)cn1 | 87 nM
C#Cc1cncc(-c2ccc3ncc4c(c3c2)n(-c2cccc(C(F)(F)F)c2)c(=O)n4C)c1 | 22 nM
CNC(=O)Nc1ccc(-c2ccc3ncc4c(c3c2)n(-c2ccc(C(C)(C)C#N)cc2)c(=O)n4C)cn1 | 21 nM
Cc1ncc(-c2ccc3ncc4c(c3c2)n(-c2cccc(F)c2C)c(=O)n4C)cc1OCCF | 21 nM
CNC(=O)Nc1ccc(-c2ccc3ncc4c(c3c2)n(-c2ccccc2C(F)(F)F)c(=O)n4C)cn1 | 4 nM
Cn1c(=O)n(-c2ccc(C(C)(C)C#N)cc2)c2c3cc(-c4ccc(NC=O)nc4)ccc3ncc21 | 19 nM
COC(=O)Nc1cncc(-c2ccc3ncc4c(c3c2)n(-c2cccc(C(F)(F)F)c2)c(=O)n4C)c1 | 146 nM
COC(=O)Nc1ccc(-c2ccc3ncc4c(c3c2)n(-c2cccc(F)c2C)c(=O)n4C)cn1 | 40 nM
CNC(=O)Nc1ccc(-c2ccc3ncc4c(c3c2)n(-c2ccc(Cl)cc2C)c(=O)n4C)cn1 | 9 nM
Cc1ncc(-c2ccc3ncc4c(c3c2)n(-c2cccc(C(F)(F)F)c2)c(=O)n4C)cc1OCCF | 14 nM
Cn1c(=O)n(-c2ccc(F)c(Cl)c2)c2c3cc(-c4cncc(OCCF)c4)ccc3ncc21 | 47 nM
COC(=O)Nc1ccc(-c2ccc3ncc4c(c3c2)n(-c2cccc(C(F)(F)F)c2)c(=O)n4C)cn1 | 6 nM
Cn1c(=O)n(-c2ccc(C(C)(C)C#N)cc2)c2c3cc(-c4ccc(NC(=O)C(F)(F)F)nc4)ccc3ncc21 | 33 nM
CNC(=O)Nc1ccc(-c2ccc3ncc4c(c3c2)n(-c2ccc(F)cc2)c(=O)n4C)cn1 | 8 nM
COC(=O)Nc1ccc(-c2ccc3ncc4c(c3c2)n(-c2cccnc2OC)c(=O)n4C)cn1 | 57 nM
C#Cc1cncc(-c2ccc3ncc4c(c3c2)n(-c2ccc(C(C)(C)C#N)cc2)c(=O)n4C)c1 | 12 nM
Cn1c(=O)n(-c2ccc(C(C)(C)C#N)cc2)c2c3cc(-c4cncc(OCCF)c4)ccc3ncc21 | 23 nM
COC(=O)Nc1ccc(-c2ccc3ncc4c(c3c2)n(-c2ccc(F)c(C(F)(F)F)c2)c(=O)n4C)cn1 | 25 nM
CNC(=O)Nc1ccc(-c2ccc3ncc4c(c3c2)n(-c2ccc(N3CCN(C)CC3)c(C(F)(F)F)c2)c(=O)n4C)cn1 | 3 nM
CNC(=O)Nc1ccc(-c2ccc3ncc4c(c3c2)n(-c2cccc(F)c2Cl)c(=O)n4C)cn1 | 5 nM

Structure (SMILES) | IC50
Cc1c(F)cccc1-n1c(=O)n(C)c2cnc3ccc(-c4cncc(OCC#N)c4)cc3c21 | 66 nM
C=CC(=O)Nc1ccc(-c2ccc3ncc4c(c3c2)n(-c2cccc(C(F)(F)F)c2)c(=O)n4C)cn1 | 45 nM
CNC(=O)Nc1ccc(-c2ccc3ncc4c(c3c2)n(-c2cccc(F)c2)c(=O)n4C)cn1 | 21 nM
Cn1c(=O)n(-c2ccc(C(C)(C)C#N)cc2)c2c3cc(-c4cncc(OCC(F)(F)F)c4)ccc3ncc21 | 19 nM
COCC(=O)Nc1ccc(-c2ccc3ncc4c(c3c2)n(-c2ccc(C(C)(C)C#N)cc2)c(=O)n4C)cn1 | 15 nM
Cn1c(=O)n(-c2ccc(C(C)(C)C#N)cc2)c2c3cc(-c4ccc(NC(=O)C5CC5)nc4)ccc3ncc21 | 6 nM
CNC(=O)Nc1ccc(-c2ccc3ncc4c(c3c2)n(-c2c(C)cccc2C)c(=O)n4C)cn1 | 107 nM
Cn1c(=O)n(-c2cccc(C(F)(F)F)c2)c2c3cc(-c4cncc(OCCF)c4)ccc3ncc21 | 115 nM
COC(=O)Nc1ccc(-c2ccc3ncc4c(c3c2)n(-c2cccc(C)c2C)c(=O)n4C)cn1 | 31 nM
COC(=O)Nc1ccc(-c2ccc3ncc4c(c3c2)n(-c2ccc(Cl)cc2Cl)c(=O)n4C)cn1 | 85 nM
COC(=O)Nc1ccc(-c2ccc3ncc4c(c3c2)n(-c2ccccc2C(F)(F)F)c(=O)n4C)cn1 | 12 nM
COC(=O)Nc1ccc(-c2ccc3ncc4c(c3c2)n(-c2cccc(F)c2Cl)c(=O)n4C)cn1 | 16 nM
COC(=O)Nc1cncc(-c2ccc3ncc4c(c3c2)n(-c2cccc(Cl)c2C)c(=O)n4C)c1 | 80 nM
CNC(=O)Nc1ccc(-c2ccc3ncc4c(c3c2)n(-c2cccc(C(F)(F)F)c2C)c(=O)n4C)cn1 | 1 nM
CNC(=O)Nc1ccc(-c2ccc3ncc4c(c3c2)n(-c2ccccc2C)c(=O)n4C)cn1 | 12 nM
COC(=O)Nc1cncc(-c2ccc3ncc4c(c3c2)n(-c2ccc(C(C)(C)C#N)cc2)c(=O)n4C)c1 | 9 nM
COC(=O)Nc1ccc(-c2ccc3ncc4c(c3c2)n(-c2ccc(C(F)(F)F)nc2C)c(=O)n4C)cn1 | 2.4 nM
COCCOc1cc(-c2ccc3ncc4c(c3c2)n(-c2cccc(C(F)(F)F)c2)c(=O)n4C)cnc1C | 40 nM
COCCOc1cncc(-c2ccc3ncc4c(c3c2)n(-c2ccc(F)c(C(F)(F)F)c2)c(=O)n4C)c1 | 107 nM
Cn1c(=O)n(-c2ccc(C(C)(C)C#N)cc2)c2c3cc(-c4ccc(NC(=O)NC5CCOC5)nc4)ccc3ncc21 (stereo unspecified) | 44 nM
COC(=O)Nc1ccc(-c2ccc3ncc4c(c3c2)n(-c2cccc(C(F)(F)F)c2C)c(=O)n4C)cn1 | 15 nM

More lines, in order of falling IC50, values ahead:

IC50 | Structure (SMILES)
133 nM | Cc1ncc(-c2ccc3ncc4c(c3c2)n(-c2ccc(C(C)(C)C#N)cc2)c(=O)n4C)cc1OC(F)F
103 nM | CCOC(=O)Nc1ccc(-c2ccc3ncc4c(c3c2)n(-c2cccc(C(F)(F)F)c2)c(=O)n4C)cn1
94 nM | COC(=O)Nc1ccc(-c2ccc3ncc4c(c3c2)n(-c2ccc(F)c(Cl)c2)c(=O)n4C)cn1
90 nM | COCC(=O)Nc1ccc(-c2ccc3ncc4c(c3c2)n(-c2ccc(F)c(C(F)(F)F)c2)c(=O)n4C)cn1
76 nM | COCCOc1cncc(-c2ccc3ncc4c(c3c2)n(-c2ccc(C(C)(C)C#N)cc2)c(=O)n4C)c1
63 nM | COCC(=O)Nc1cncc(-c2ccc3ncc4c(c3c2)n(-c2ccc(C(C)(C)C#N)cc2)c(=O)n4C)c1
52 nM | C=CC(=O)Nc1ccc(-c2ccc3ncc4c(c3c2)n(-c2cccc(F)c2C)c(=O)n4C)cn1
48 nM | COC(=O)Nc1ccc(-c2ccc3ncc4c(c3c2)n(-c2ccccc2C)c(=O)n4C)cn1
44 nM | COCc1ccc(-c2ccc3ncc4c(c3c2)n(-c2ccc(C(C)(C)C#N)cc2)c(=O)n4C)cn1
32 nM | COCC(=O)Nc1ccc(-c2ccc3ncc4c(c3c2)n(-c2cccc(C(F)(F)F)c2)c(=O)n4C)cn1
27 nM | COC(=O)Nc1ccc(-c2ccc3ncc4c(c3c2)n(-c2cccc(Cl)c2C)c(=O)n4C)cn1
24 nM | Cn1c(=O)n(-c2ccc(C(C)(C)C#N)cc2)c2c3cc(-c4ccc(NC(=O)CC#N)nc4)ccc3ncc21
22 nM | Cn1c(=O)n(-c2ccc(C(C)(C)C#N)cc2)c2c3cc(-c4cncc(OCC#N)c4)ccc3ncc21
22 nM | Cn1c(=O)n(-c2ccc(C(C)(C)C#N)cc2)c2c3cc(-c4ccc(NC(=O)NCCO)nc4)ccc3ncc21
19 nM | CNC(=O)Nc1ccc(-c2ccc3ncc4c(c3c2)n(-c2cccnc2OC)c(=O)n4C)cn1
18 nM | Cn1c(=O)n(-c2cccc(C(F)(F)F)c2)c2c3cc(-c4ccc(NC(=O)CC#N)nc4)ccc3ncc21
14 nM | C/C=C/C(=O)Nc1ccc(-c2ccc3ncc4c(c3c2)n(-c2ccc(C(C)(C)C#N)cc2)c(=O)n4C)cn1
12 nM | CNC(=O)Nc1ccc(-c2ccc3ncc4c(c3c2)n(-c2ccc(F)cc2C)c(=O)n4C)cn1
10 nM | Cn1c(=O)n(-c2ccc(C(C)(C)C#N)cc2)c2c3cc(-c4cncc(OC(F)F)c4)ccc3ncc21
7 nM | CNC(=O)Nc1ccc(-c2ccc3ncc4c(c3c2)n(-c2cccc(F)c2C)c(=O)n4C)cn1
6 nM | CNC(=O)Nc1ccc(-c2ccc3ncc4c(c3c2)n(-c2cccc(Cl)c2C)c(=O)n4C)cn1
5 nM | C=CC(=O)Nc1ccc(-c2ccc3ncc4c(c3c2)n(-c2ccc(C(C)(C)C#N)cc2)c(=O)n4C)cn1
5 nM | Cc1ncc(-c2ccc3ncc4c(c3c2)n(-c2ccc(C(C)(C)C#N)cc2)c(=O)n4C)cc1OCCF
5 nM | CNC(=O)Nc1ccc(-c2ccc3ncc4c(c3c2)n(-c2ccc(F)c(C(F)(F)F)c2)c(=O)n4C)cn1
4 nM | COC(=O)Nc1ccc(-c2ccc3ncc4c(c3c2)n(-c2cccc(Cl)c2F)c(=O)n4C)cn1
3 nM | CNC(=O)Nc1ccc(-c2ccc3ncc4c(c3c2)n(-c2cccc(Cl)c2F)c(=O)n4C)cn1
3 nM | CNC(=O)Nc1ccc(-c2ccc3ncc4c(c3c2)n(-c2cccc(C)c2C)c(=O)n4C)cn1
2 nM | CNC(=O)Nc1ccc(-c2ccc3ncc4c(c3c2)n(-c2cccc(C(F)(F)F)c2)c(=O)n4C)cn1
